Measurements from patent US10111854B2, “Synthesis and use of amine-containing flavonoids as potent anti-leishmanial agents” (The Hong Kong Polytechnic University, priority 2014, dated 2018).

Assays:
[1] = system: L. amazonensis LV78 promastigotes; test: Anti-promastigote activity (MTS assay), L. amazonensis LV78; format: cell-based; conditions: Leishmania amazonensis, 72 hours
Experimental: (§1) Promastigotes of visceral L. donovani Ld39 and LdHU3, and cutaneous L. amazonensis LV78, L. braziliensis UA847 and L. major FV1 were employed in the study. All strains were cultured in Schneider's Drosophila Medium (Invitrogen), pH 6.9 supplemented with 10% (v/v) heat inactivated fetal bovine serum (Hyclone) with 4 mM glutamine (Sigma) and 25 μg/mL gentamicin solution (Invitrogen) at 27° C. for 4 days. RAW264.7 cells were cultured in supplemented DMEM media with 10% heat inactivated FBS and 100 U/mL penicillin and 100 μg/mL of streptomycin. They were maintained at 37° C. in a humidified atmosphere with 5% CO2. The cells were split constantly after a confluent monolayer has been formed. The cells were harvested by a cell scraper.
(§2) Anti-promastigote activity was determined according to previous procedures (1) by Cell Titer 96® Aqueous Assay (Promega) that employed a tetrazolium compound. Promastigotes were seeded into 96-well flat bottom microtiter plate at 1×10^5 cells per well in a final volume of 100 μL medium and incubated with a series of concentrations of synthetic FM. Parasites were incubated at 27° C. for 72 hours. After 72 hours of incubation, 10 μL of MTS:PMS mixture [MTS:2-(4,5-Dimethylthiazol-2-yl-)-5-[3-(carboxymethoxy)phenyl]-2-(4-sulfophenyl)-2H-tetrazolium); PMS: phenazine methosulfate both purchased from Sigma] was added into each well of microtiter plate. The plate was then incubated at 27° C. for 4 hours for color development. After 4 hours of incubation, the OD values were determined at 490 nm using automatic microtiter plate reader (Bio-Rad).
(§3) IC50 values of known antileishmanials and the amine-containing flavonoid monomers of the present invention to promastigotes (L. amazonensis LV78, L major FV1, L. donovani HU3, L. donovani 39), macrophages (Raw 264.7 and PEM) and mouse fibroblast (L929) were determined. The anti-promastigotes activities and cytotoxicity of the amine-containing flavonoid monomers of the invention are shown in Table 1.

[2] = system: L. major FV1 promastigotes; test: Anti-promastigote activity (MTS assay), L. major FV1; format: cell-based; conditions: Leishmania major, 72 hours
Experimental: as §1, §2, §3

[3] = system: L. donovani HU3 promastigotes; test: Anti-promastigote activity (MTS assay), L. donovani HU3; format: cell-based; conditions: Leishmania donovani, 72 hours
Experimental: as §1, §2, §3

[4] = system: L. donovani Ld39 promastigotes; test: Anti-promastigote activity (MTS assay), L. donovani Ld39; format: cell-based; conditions: Leishmania donovani, 72 hours
Experimental: as §1, §2, §3

[5] = Cytotoxicity, L929 fibroblasts; format: cell-based, mouse; conditions: mouse
Experimental: as §3

[6] = Cytotoxicity, peritoneal elicited macrophages (PEM); format: cell-based, mouse; conditions: mouse, Cytotoxicity IC50, PEM
Experimental: (§4) Mouse peritoneal elicited macrophages (PEM) were obtained as previously described (2). A round cover slip (12 mm in diameter) was placed into each well of 24-well culture plate. Mouse PEM were resuspended in supplemented DMEM media containing 10% heat inactivated FBS (v/v), 100 U/mL penicillin and 100 μg/mL streptomycin and seeded into each well at a cell density of 1×10^5 cells per 500 μL. Macrophages were allowed to attach overnight. Non-adherent cells were removed by gentle washing with un-supplemented DMEM media twice. Adherent macrophages were infected with late-log promastigotes at a parasite-to-macrophage ratio of 20:1 overnight at 37° C. with 5% CO2. Non-internalized promastigotes were removed by washing twice with un-supplemented DMEM media. Infected macrophages were further incubated in 500 μL of supplemented DMEM media in the presence or absence of FM for 72 hours at 37° C. After incubation, cover slips were stained with Giemsa and the percentage of macrophages infected and number of amastigotes per 100 macrophages was enumerated.
as §3

[7] = system: L. amazonensis LV78 amastigotes; test: Anti-amastigote activity in infected PEM, L. amazonensis LV78; format: cell-based; conditions: for IC50: Leishmania amazonensis, 72 h, infected PEM, 3 days, Giemsa; for Selective index (a)/(b): IC50 RAW264.7 over IC50 L. amazonensis LV78 amastigotes
Experimental: as §4
(§5) PEM cells were infected with late-log promastigotes (L. amazonensis LV78, L. braziliensis UA847, L. donovani HU3, L. donovani 39) for 24 hr at 37° C. Infected macrophages were then treated with various antileishmanials and incubated for 3 days at 37° C. After 3 days, the cover slips were stained with Giemsa. The number of amastigotes per 100 macrophages were determined and used to calculate IC50 values.

[8] = system: L. donovani HU3 amastigotes; test: Anti-amastigote activity in infected PEM, L. donovani HU3; format: cell-based; conditions: for IC50: Leishmania donovani, 72 h, infected PEM, 3 days, Giemsa, SSG-sensitive
Experimental: as §4, §5

[9] = system: L. donovani Ld39 amastigotes (SSG-resistant); test: Anti-amastigote activity in infected PEM, L. donovani Ld39; format: cell-based; conditions: for IC50: Leishmania donovani, 72 h, infected PEM, 3 days, Giemsa, SSG-resistant
Experimental: as §4, §5

[10] = system: promastigotes (L. amazonensis LV78, L major FV1, L. donovani HU3, L. donovani 39); test: Anti-promastigote activity, strain not given; format: cell-based; conditions: Leishmania amazonensis; strain not specified; read-out: IC50 against promastigotes
Experimental: as §2, §3

[11] = system: amastigotes (L. amazonensis LV78, L. braziliensis UA847, L. donovani HU3, L. donovani 39); test: Anti-amastigote activity, strain not given; format: cell-based; conditions: strain not specified; visceral and cutaneous Leishmania; read-out: IC50 against amastigotes
Experimental: as §4, §5

[12] = system: L. amazonensis and L. donovani HU3 promastigotes and amastigotes; test: Anti-promastigote and anti-amastigote activity of FM09, FM01 and FM05 derivatives; format: cell-based, Leishmania; conditions: stage and strain not specified; read-out: IC50, anti-promastigote and anti-amastigote activity (Table 3C)
Experimental: Derivatives of FM09, FM01 and FM05 were synthesized and their anti-promastigote and anti-amastigote activity were determined (Table 3C). Many amine-containing flavonoid monomers have IC50 less than 5 μM, including FM09a, FM09b, FM09c, FM09e, FM09h, FM09i, FM09k, FM09l, FM01b and FM05b.

IC50 [1] | IC50 [2] | IC50 [3] | IC50 [7] | IC50 [8] | IC50 [10] | IC50 [11] | IC50 [12] | SMILES | IC50 [4] | IC50 [5] | IC50 [6] | IC50 [9] | Selective index (a)/(b) [7] | Selective index (a)/(b), (a) measured using PEM ([7]; IC50 PEM over IC50 L. amazonensis LV78 amastigotes) | Selective index (a)/(c), (a) measured using PEM ([9]; IC50 PEM over IC50 L. donovani Ld39 amastigotes) | Selective index (a)/(b) ([8]; IC50 RAW264.7 over IC50 L. donovani HU3 amastigotes) | Selective index (a)/(c) ([9]; IC50 RAW264.7 over IC50 L. donovani Ld39 amastigotes)
4.6 ± 0.6 µM | 5.4 ± 1 µM | 1.8 ± 0.3 µM | 4.7 ± 1 µM | > 10 µM | < 5 µM | < 5 µM |  | CN(CCOc1ccc(-c2cc(=O)c3ccccc3o2)cc1)CCN(C)Cc1ccncc1 [FM02, 2-(4-(2-(methyl(2-(methyl(pyridin-4-ylmethyl)amino)ethyl)amino)ethoxy)phenyl)-4H-chromen-4-one] | 2.1 ± 0.6 µM | 22.1 ± 4 µM | 22 µM | 9.6 µM |  |  |  |  | 
8.3 ± 1.9 µM | 9.5 ± 1.2 µM | 1.4 ± 0.4 µM | 6.7 ± 1.8 µM | > 10 µM | < 5 µM |  |  | O=c1cc(-c2ccc(OCCOCCNCc3ccncc3)cc2)oc2ccccc12 [FM08, 2-(4-(2-(2-((pyridin-4-ylmethyl)amino)ethoxy)ethoxy)phenyl)-4H-chromen-4-one] | 2.7 ± 0.9 µM | > 33 µM |  | > 10 µM |  |  |  |  | 
2 ± 0.3 µM | 3.6 ± 0.7 µM | 2.2 ± 0.5 µM | 4.5 ± 1.8 µM | > 10 µM | < 5 µM | < 5 µM |  | CN(C)CCOCCOc1ccc(-c2cc(=O)c3ccccc3o2)cc1 [FM06, 2-(4-(2-(2-(dimethylamino)ethoxy)ethoxy)phenyl)-4H-chromen-4-one] | 1.1 ± 0.1 µM | > 33 µM |  | > 10 µM |  |  |  |  | 
7.41 ± 1.76 µM |  | 4.9 ± 0.78 µM | 2.4 ± 0.37 µM | 3.5 ± 0.48 µM |  |  | < 5 µM | Cc1cccc(CN(CCOCCOc2ccc(-c3cc(=O)c4ccccc4o3)cc2)Cc2cccc(C)n2)n1 [FM09e, 2-(4-(2-(2-(bis((6-methylpyridin-2-yl)methyl)amino)ethoxy)ethoxy)phenyl)-4H-chromen-4-one] |  | 18.8 ± 0.95 µM |  |  |  |  |  |  | 
2.8 ± 0.8 µM | 3.8 ± 0.7 µM | 2.4 ± 0.5 µM | 3.7 ± 1.7 µM | > 5 µM | < 5 µM | < 5 µM |  | O=c1cc(-c2ccc(OCCOCCNCc3ccccc3)cc2)oc2ccccc12 [FM04, 2-(4-(2-(2-(benzylamino)ethoxy)ethoxy)phenyl)-4H-chromen-4-one] | 2.6 ± 0.5 µM | > 33 µM | 20.3 µM | 6.8 µM |  |  |  |  | 
47.8 ± 18.7 µM | 22.6 ± 10.9 µM |  | 4.5 µM |  |  |  |  | O=c1cc(-c2ccc(OCCOCCN(CCOCCO)Cc3ccncc3)cc2)oc2ccccc12 [FM21, 2-(4-(2-(2-((2-(2-hydroxyethoxy)ethyl)(pyridin-4-ylmethyl)amino)ethoxy)ethoxy)phenyl)-4H-chromen-4-one] | 3.4 ± 0.9 µM | 24 µM | 58.5 ± 4.3 µM | 0.33 µM |  | 13 | 177 |  | 
0.9 ± 0.3 µM | 2.1 ± 0.5 µM | 0.4 ± 0.1 µM | 3.4 ± 0.9 µM | > 10 µM | < 5 µM | < 5 µM |  | O=c1cc(-c2ccc(OCCC3CCCCN3Cc3ccncc3)cc2)oc2ccccc12 (stereo not shown) [FM17, 2-(4-(2-(1-(pyridin-4-ylmethyl)piperidin-2-yl)ethoxy)phenyl)-4H-chromen-4-one] | 1.5 ± 0.5 µM | > 100 µM |  | > 10 µM | >29.4 |  |  |  | 
 |  |  |  |  |  |  | < 5 µM | O=c1cc(-c2ccc(OCCOCCN(Cc3cccnc3)Cc3cccnc3)cc2)oc2ccccc12 [FM09b, 2-(4-(2-(2-(bis(pyridin-3-ylmethyl)amino)ethoxy)ethoxy)phenyl)-4H-chromen-4-one] |  |  |  |  |  |  |  |  | 

Second part, the compound before the results:

SMILES | IC50 [1] | IC50 [2] | IC50 [3] | IC50 [7] | IC50 [8] | IC50 [10] | IC50 [11] | IC50 [12] | IC50 [4] | IC50 [5] | IC50 [6] | IC50 [9] | Selective index (a)/(b) [7] | Selective index (a)/(b), (a) measured using PEM ([7]; IC50 PEM over IC50 L. amazonensis LV78 amastigotes) | Selective index (a)/(c), (a) measured using PEM ([9]; IC50 PEM over IC50 L. donovani Ld39 amastigotes) | Selective index (a)/(b) ([8]; IC50 RAW264.7 over IC50 L. donovani HU3 amastigotes) | Selective index (a)/(c) ([9]; IC50 RAW264.7 over IC50 L. donovani Ld39 amastigotes)
COc1ccnc(CN2CCN(CCOc3ccc(-c4cc(=O)c5ccccc5o4)cc3)CC2)c1OC [FM01b, 2-(4-(2-(4-((3,4-dimethoxypyridin-2-yl)methyl)piperazin-1-yl)ethoxy)phenyl)-4H-chromen-4-one] | 3.99 ± 0.99 µM |  | 6.15 ± 1.47 µM | 2.42 ± 0.69 µM | 3.5 ± 1.01 µM |  |  | < 5 µM |  | 95.8 ± 4.25 µM |  |  |  |  |  |  | 
COc1ccnc(CN(CCOCCOc2ccc(-c3cc(=O)c4ccccc4o3)cc2)Cc2nccc(OC)c2OC)c1OC [FM09a, 2-(4-(2-(2-(bis((3,4-dimethoxypyridin-2-yl)methyl)amino)ethoxy)ethoxy)phenyl)-4H-chromen-4-one] | 0.32 ± 0.05 µM |  | 0.47 ± 0.07 µM | 0.56 ± 0.21 µM |  |  |  | < 5 µM |  |  | 10.4 ± 0.64 µM |  |  |  |  |  | 
O=c1cc(-c2ccc(OCCN3CCCN(Cc4ccncc4)CC3)cc2)oc2ccccc12 [FM14, 2-(4-(2-(4-(pyridin-4-ylmethyl)-1,4-diazepan-1-yl)ethoxy)phenyl)-4H-chromen-4-one] | 1.4 ± 0.3 µM | 1.6 ± 0.6 µM | 0.3 ± 0.1 µM | 1.9 ± 0.5 µM | > 7 µM | < 5 µM | < 5 µM |  | 1.4 ± 0.9 µM | 10.6 µM |  | 8.4 µM | 11.4 |  |  |  | 
O=c1cc(-c2ccc(OC[C@@H]3CCCN3Cc3ccncc3)cc2)oc2ccccc12 [FM18, (S)-2-(4-((1-(pyridin-4-ylmethyl)pyrrolidin-2-yl)methoxy)phenyl)-4H-chromen-4-one] | 5.5 ± 1 µM | 4.9 ± 0.4 µM | 1.9 ± 0.4 µM | 3.1 ± 0.1 µM | > 9 µM | < 5 µM | < 5 µM |  | 2.7 ± 0.9 µM | 39.1 ± 2.5 µM |  | > 10 µM | 17.0 |  |  |  | 
O=c1cc(-c2ccc(OCC3CCN(Cc4ccncc4)CC3)cc2)oc2ccccc12 [FM13, 2-(4-((1-(pyridin-4-ylmethyl)piperidin-4-yl)methoxy)phenyl)-4H-chromen-4-one] | 3.5 ± 1.1 µM | 5.7 ± 3.1 µM | 1.1 ± 0.6 µM | 2.5 ± 0.5 µM | > 10 µM | < 5 µM | < 5 µM |  | 0.7 ± 0.2 µM | > 100 µM |  | 3.3 µM | >40 |  |  | >10 | >33
O=C(COc1ccc(-c2cc(=O)c3ccccc3o2)cc1)N1CCCN(Cc2ccncc2)CC1 [FM15, 2-(4-(2-oxo-2-(4-(pyridin-4-ylmethyl)-1,4-diazepan-1-yl)ethoxy)phenyl)-4H-chromen-4-one] | 4.8 ± 1.3 µM | 6.4 ± 1.7 µM | 1.5 ± 0.3 µM | > 9 µM | > 10 µM | < 5 µM | < 5 µM |  | 1.8 ± 0.7 µM | 14.9 ± 2.6 µM |  | 3.3 µM |  |  |  |  | 
